Experiments:
[1] = biological target: T1, human SCD5 (Homo sapiens, UniProt Q86SK9); test: Growth of humanized yeast surviving solely on human SCD5; assay type: cell-based; settings: for half-maximal inhibitory concentration (IC50), SCD5 humanized strain: growth inhibition
T1 construct: host or cells: S. cerevisiae ole1Δ strain (W303 pdr1Δ pdr3Δ background), plasmid pRS316 with TDH3 promoter and CYC1 terminator
T1 sequence (Q86SK9 1-330): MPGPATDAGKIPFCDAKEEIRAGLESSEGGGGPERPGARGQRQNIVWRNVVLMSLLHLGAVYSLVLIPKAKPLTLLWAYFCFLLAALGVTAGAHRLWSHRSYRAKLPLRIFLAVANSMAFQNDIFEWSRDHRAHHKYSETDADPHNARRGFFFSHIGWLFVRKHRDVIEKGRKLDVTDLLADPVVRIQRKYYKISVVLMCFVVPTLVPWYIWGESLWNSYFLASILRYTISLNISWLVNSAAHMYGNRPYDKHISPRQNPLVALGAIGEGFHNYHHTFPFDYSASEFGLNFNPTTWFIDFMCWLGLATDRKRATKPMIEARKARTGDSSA
Text: (§1) To generate yeast strains expressing SCD1 or SCD5 as the sole desaturase, the human SCD1 and SCD5 genes were cloned from cDNAs (Harvard PlasmID database Clone ID HsCD00340237 for SCD1 and HsCD00342695 for SCD5) into yeast plasmid pRS316 (ATCC 77145) between the yeast TDH3 promoter and the CYC1 terminator. The coding sequence of yeast OLE1 was also cloned into this plasmid). These clones were then transformed into the ole1d strain and plated on CSM-Ura media (CSM lacking uracil) with 2% glucose (w/v) and independent colonies were isolated and amplified.
(§2) For experiments using a plasmid-borne copy of Ole1, SCD1, or SCD5 (FIGS. 3B, 6, and 7), media lacking uracil (SX-Ura, where X is glucose, raffinose, or galactose), was used for all steps of the compound profiling protocol to ensure its maintenance throughout the assay.
(§3) After yeast delivery, assay plates were incubated under humidified conditions at 30° C. for 24 to 40 h. ApoE4 rescue experiments were stopped at 24 h, aSyn experiments at 40 h, Ole1 at 24 h, and SCD1/SCD5 at 40 h. The growth of yeast was monitored by reading the OD600 of each well using a microplate reader (Perkin Elmer EnVision™). For model rescue experiments, raw data were processed by background subtracting and calculating a fold-change relative to DMSO control [(EXP-0.035)/(DMSO-0.035)—where 0.035 is the OD600 contributed by an empty well containing 30 μL of media alone]. For growth inhibition of wild-type cells, raw data were processed by background subtracting and converting values to a percent of the nontreated condition for that strain [(EXP-0.035)/(DMSO-0.035)×100%].

[2] = biological target: T2, human SCD1 (Homo sapiens, UniProt O00767); test: Growth of humanized yeast surviving solely on human SCD1; assay type: cell-based; settings: for half-maximal inhibitory concentration (IC50), SCD1 humanized strain: growth inhibition
T2 construct: host or cells: S. cerevisiae ole1Δ strain (W303 pdr1Δ pdr3Δ background), plasmid pRS316 with TDH3 promoter and CYC1 terminator
T2 sequence (O00767 1-359): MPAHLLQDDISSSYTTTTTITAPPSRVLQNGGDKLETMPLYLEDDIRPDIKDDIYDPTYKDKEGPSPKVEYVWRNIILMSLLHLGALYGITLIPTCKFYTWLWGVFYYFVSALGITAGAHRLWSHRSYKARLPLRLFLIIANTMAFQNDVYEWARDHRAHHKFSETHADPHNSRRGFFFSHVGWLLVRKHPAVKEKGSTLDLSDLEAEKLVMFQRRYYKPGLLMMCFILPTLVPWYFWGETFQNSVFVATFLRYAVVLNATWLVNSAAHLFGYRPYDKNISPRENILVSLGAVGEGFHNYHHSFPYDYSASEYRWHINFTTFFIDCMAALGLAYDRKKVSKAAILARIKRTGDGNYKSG
Text: The coding sequence of yeast OLE1 was also cloned into this plasmid). These clones were then transformed into the ole1d strain and plated on CSM-Ura media (CSM lacking uracil) with 2% glucose (w/v) and independent colonies were isolated and amplified.
as §2
After yeast delivery, assay plates were incubated under humidified conditions at 30° C. for 24 to 40 h. ApoE4 rescue experiments were stopped at 24 h, aSyn experiments at 40 h, Ole1 at 24 h, and SCD1/SCD5 at 40 h. The growth of yeast was monitored by reading the OD600 of each well using a microplate reader (Perkin Elmer EnVision™).

[3] = biological target: T3, yeast OLE1 (Saccharomyces cerevisiae, UniProt P21147, L450T/T449L); test: Growth of yeast surviving solely on yeast OLE1; assay type: cell-based; settings: 24 h
T3 construct: expressed in transfected cells; host or cells: S. cerevisiae ole1Δ strain (W303 pdr1Δ pdr3Δ background), plasmid pRS316 with TDH3 promoter and CYC1 terminator
T3 sequence (P21147 whole entry T449L/L450T): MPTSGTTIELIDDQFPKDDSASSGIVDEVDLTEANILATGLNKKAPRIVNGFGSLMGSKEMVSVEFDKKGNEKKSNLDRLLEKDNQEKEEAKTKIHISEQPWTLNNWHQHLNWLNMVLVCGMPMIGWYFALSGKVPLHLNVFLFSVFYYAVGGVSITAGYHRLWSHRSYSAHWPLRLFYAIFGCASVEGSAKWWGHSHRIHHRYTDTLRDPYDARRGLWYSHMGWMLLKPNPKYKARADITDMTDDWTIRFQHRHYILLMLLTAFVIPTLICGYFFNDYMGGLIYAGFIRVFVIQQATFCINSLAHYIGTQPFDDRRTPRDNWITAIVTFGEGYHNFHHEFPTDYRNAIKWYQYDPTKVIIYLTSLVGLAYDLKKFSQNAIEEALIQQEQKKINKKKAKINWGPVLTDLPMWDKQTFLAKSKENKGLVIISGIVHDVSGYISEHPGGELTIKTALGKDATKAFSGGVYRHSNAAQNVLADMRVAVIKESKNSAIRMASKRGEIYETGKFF
Text: as §1, §2, §3

[4] = test system: yeast; test: Yeast growth inhibition in control / wild-type condition (OD600); assay type: cell-based, Saccharomyces cerevisiae; settings: ApoE4 strain under non-inducing conditions (raffinose); at concentrations just above Emax of rescue
Text: Strain GMYF was constructed from the ABC16/Green monster strain described in Suzuki et al. Nat. Methods 8(2):159-164, 2011. In this strain, YAP1 was deleted using a HIS3-MX6 cassette, and FLR1 was deleted using a NAT-MX6 cassette using standard methods. The knockout cassettes were PCR-amplified from plasmid templates (see, e.g., Bahler et al. Yeast 14(10):943-951, 1998; Longtine et al. Yeast 14(10):953-961, 1998) and transformed into yeast using lithium acetate-based transformation (Gietz et al. Methods Mol. Biol. 1205:1-12, 2014). The yap1::his3 deletion strain was selected on media lacking histidine and flr1::NAT on plates containing 100 μg/mL nourseothricin. All strains were confirmed by diagnostic PCR. Strain W303 pdr1Δ pdr3Δ was constructed from W303-1A (American Type Culture Collection (ATCC) 208352) by deleting PDR1 and PDR3 with kan-MX6 cassettes separately in MATa and MATa W303a isolates, mating, sporulating, and identifying the double deletion haploids by tetrad dissection and identification of non-parental ditype tetrads. Strain W-erg3 was derived from W303 pdr1 Δ pdr3Δ by deleting SNQ2 with NAT-MX6, YAP1 with HIS3-MX6, and ERG3 with BleMX. […]
(§4) After yeast delivery, assay plates were incubated under humidified conditions at 30° C. for 24 to 40 h. […] The growth of yeast was monitored by reading the OD600 of each well using a microplate reader (Perkin Elmer EnVision™). […]

[5] = test system: ApoE4; test: ApoE4 Alzheimer's disease yeast model, rescue of toxicity (OD600 growth); assay type: cell-based, Saccharomyces cerevisiae; settings: 12-point dose; ApoE4 expression induced
Text: Strain ApoE-mga2Δ was generated by amplifying 1000 base pairs (bp) upstream and downstream of the MGA2 ORF in a strain in which MGA2 was deleted using a G418 (GENETICIN®) resistance cassette (kanMX) (Piotrowski et al. Proc. Natl. Acad. Sci. USA 112(12):E1490-1497, 2015) and transforming the resulting deletion cassette into the ApoE4 strain in the BY4741 (ATCC 201388) genetic background. The ApoE strain is described, for example, in International Patent Application Publication No. WO 2016/040794, which is incorporated herein by reference in its entirety.
Yeast were cultured using standard techniques in complete synthetic media (CSM) and yeast nitrogen base supplemented with 2% (w/v) carbon source (glucose, raffinose, or galactose) to regulate the expression of the toxic disease protein. An initial starter culture was inoculated in 3 mL CSM-Glucose media and incubated overnight in a 30° C. shaker incubator (225 rpm). Saturated morning cultures were then diluted 1:20 in fresh CSM-Raffinose media and grown for 6 h to an OD600 (optical density) of 0.4-0.8 at 30° C. with shaking. […]
as §4

[6] = test system: cellular fatty acid desaturase activity (Ole1); test: Quantitative lipid profiling of treated yeast cells by LC-MS/MS; assay type: cell-based, Saccharomyces cerevisiae
Method: FIGS. 8A-8D are graphs showing that treatment of yeast cells with the 1,2,4-oxadiazole Compound 2 inhibits lipid desaturation. Exponentially-growing wild-type yeast cells were treated with the indicated doses of the 1,2,4-oxadiazole Compound 2 for the indicated times before cellular lysis, lipid extraction, and analysis by global LC-MS/MS profiling. The relative abundance (fraction of total cellular lipid signal) after 1.5 h and 8 h of the most abundant saturated lipid, phosphatidylcholine 26:0, is depicted in FIGS. 8A and 8B, respectively. The relative abundance after 1.5 h and 8 h drug treatment of the most abundant lipid with 2 or more degrees of unsaturation, phosphatidylcholine 16:1; 18:1, is depicted in FIGS. 8C and 8D, respectively.
Overnight cultures of yeast strain W303 pdr1Δ pdr3Δ were diluted into CSM media with 2% (w/v) raffinose, OD600 0.25, and grown for 4 h before resuspending at an OD600 of 0.2 in CSM media with 2% (w/v) galactose and adding Compound 2 or DMSO at the indicated concentrations. Cells were grown for the indicated timepoints before centrifugation, washing once in PBS, and freezing pellets. Lipids were extracted from pellets by resuspending the pellets in 600 μL methanol, 300 μL water, and 400 μL chloroform, followed by cell lysis by vortexing with glass beads for 1 min. Samples were then centrifuged at 10,000×g for 10 min, and the bottom layer that formed (organic/lipids) was moved into a new tube and evaporated. Samples were then analyzed by LC/MS/MS using a Thermo Scientific Q Exactive™ Orbitrap™ coupled to a Dionex UltiMate® 3000 ultra-high performance liquid chromatography system, following the method described in Tafesse et al. PLoS Pathog. 11(10): e1005188, 2015.

SMILES | half-maximal inhibitory concentration (IC50), SCD5 humanized strain [1] | half-maximal inhibitory concentration (IC50), SCD1 humanized strain [2] | growth of yeast strain expressing Ole1 (percent of DMSO-treated condition) [3] | also measured
Cc1nnc(-c2ccc(N3CCC(Oc4ccccc4C(F)(F)F)CC3)nn2)s1 [MF-438] | low nanomolar | low nanomolar | resistant | 
C[C@@H]1C[C@@H]([C@H](O)CC2CC(=O)NC(=O)C2)C(=O)[C@@H](C)C1 [Cyclohexamide] |  |  | inhibited growth of all three strains with the same potency | growth of SCD5-expressing yeast (percent of DMSO-treated condition) ([1]; 40 h): inhibited growth of all three strains with the same potency; growth of SCD1-expressing yeast (percent of DMSO-treated condition) ([2]; 40 h): inhibited growth of all three strains with the same potency
COc1ccc(-c2noc(C3CCN(C(=O)CNC(=O)c4ccccc4)CC3)n2)cc1OC [Compound 1, N-(2-(4-(3-(3,4-dimethoxyphenyl)-1,2,4-oxadiazol-5-yl)piperidin-1-yl)-2-oxoethyl)benzamide] |  |  |  | growth in control condition [4]: growth decreased; rescue in ApoE4 model, dose-response curve (raw OD600) [5]: bell-shaped dose-response curve
Cc1nn(C)c2cc(-c3noc(C4CCN(C(=O)CNC(=O)c5ccccc5)CC4)n3)ccc12 [Compound 2, N-(2-(4-(3-(1,3-dimethyl-1H-indazol-6-yl)-1,2,4-oxadiazol-5-yl)piperidin-1-yl)-2-oxoethyl)benzamide] |  |  |  | lipid desaturation in yeast cells [6]: inhibited lipid desaturation; decrease in abundance of unsaturated lipid phosphatidylcholine 16:1, 18:1 ([6]; 8 h treatment, wild-type yeast): > 12 fold; increase in abundance of saturated lipid phosphatidylcholine 26:0 ([6]; after 8 h treatment, wild-type yeast): > 300 fold
O=C(O)Cn1nnc(-c2cc(N3CCC(Oc4cc(F)ccc4Br)CC3)no2)n1 [MK-8245] | low nanomolar |  | resistant | 
CNC(=O)c1cccc(NC(=O)N2CCC(Oc3ccccc3Cl)CC2)c1 [Compound A939572] | low nanomolar | low nanomolar | resistant | 

Source: US10973810B2, “Methods for the treatment of neurological disorders” (Yumanity Therapeutics, Inc., priority 2017, dated 2021)
